Source: the supplement of paper PMC10307832

Tests used:
Test in all cases: relative viability (nuclei count vs DMSO), 5 days (fraction); higher = more cells survive
Zebularine + Trametinib = compound: O=c1ncccn1[C@@H]1O[C@H](CO)[C@@H](O)[C@H]1O [Zebularine] + CC(=O)Nc1cccc(-n2c(=O)n(C3CC3)c(=O)c3c(Nc4ccc(I)cc4F)n(C)c(=O)c(C)c32)c1 [Trametinib] (partner 0.02 µM)
Summary of the method: (§1)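 The day after seeding in 1536-well plates, lung cancer cell lines were treated by pin tool with a single drug, or with a fixed anchor-drug dose together with five library-drug doses (not always all listed) in √10 steps. After 5 days, a combined fix-and-stain solution (final 0.05% Triton X-100, 1% formaldehyde, 1 ug/ml Hoechst) was added. Nuclei counted on 4× images gave relative viability as treated counts over vehicle counts, reported as the median of duplicate plates.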

BI-D1870 + Phenformin = compound: CC(C)CCN1c2nc(Nc3cc(F)c(O)c(F)c3)ncc2N(C)C(=O)C1C [BI-D1870] + N=C(N)NC(=N)NCCc1ccccc1 [Phenformin] (partner 250 µM)
Summary of the method: as §1

Zebularine + Pictilisib = compound: O=c1ncccn1[C@@H]1O[C@H](CO)[C@@H](O)[C@H]1O [Zebularine] + CS(=O)(=O)N1CCN(Cc2cc3nc(-c4cccc5[nH]ncc45)nc(N4CCOCC4)c3s2)CC1 [Pictilisib] (partner 1 µM)
Summary of the method: as §1

Zebularine + Vorinostat = compound: O=c1ncccn1[C@@H]1O[C@H](CO)[C@@H](O)[C@H]1O [Zebularine] + O=C(CCCCCCC(=O)Nc1ccccc1)NO [Vorinostat] (partner 1 µM)
Summary of the method: as §1

Cell Line | relative viability (Zebularine + Trametinib; first compound 1 µM) | relative viability (Zebularine + Trametinib; first compound 3.162 µM) | relative viability (Zebularine + Trametinib; first compound 10 µM) | relative viability (Zebularine + Trametinib; first compound 31.62 µM) | relative viability (Zebularine + Trametinib; first compound 100 µM) | relative viability (BI-D1870 + Phenformin; first compound 0.04 µM) | relative viability (BI-D1870 + Phenformin; first compound 0.1265 µM) | relative viability (BI-D1870 + Phenformin; first compound 0.4 µM) | relative viability (BI-D1870 + Phenformin; first compound 1.265 µM) | relative viability (BI-D1870 + Phenformin; first compound 4 µM) | relative viability (Zebularine + Pictilisib; first compound 1 µM) | relative viability (Zebularine + Pictilisib; first compound 3.162 µM) | relative viability (Zebularine + Pictilisib; first compound 10 µM) | relative viability (Zebularine + Pictilisib; first compound 31.62 µM) | relative viability (Zebularine + Pictilisib; first compound 100 µM) | relative viability (Zebularine + Vorinostat; first compound 1 µM) | relative viability (Zebularine + Vorinostat; first compound 3.162 µM) | relative viability (Zebularine + Vorinostat; first compound 10 µM) | relative viability (Zebularine + Vorinostat; first compound 31.62 µM) | relative viability (Zebularine + Vorinostat; first compound 100 µM)
201T | 0.793 | 0.767 | 0.647 | 0.741 | 0.719 | 0.457 | 0.47 | 0.421 | 0.487 | 0.428 | 0.729 | 0.743 | 0.709 | 0.671 | 0.703 | 0.944 | 0.921 | 0.955 | 1.05 | 1.02
A549 |  |  |  |  |  | 0.211 | 0.174 | 0.177 | 0.207 | 0.165 | 0.626 | 0.482 |  | 0.619 | 0.209 |  |  |  |  | 
A-427 | 0.763 | 0.746 | 0.698 | 0.448 | 0.267 | 0.41 | 0.308 | 0.306 | 0.379 | 0.347 | 0.835 | 0.783 | 0.686 | 0.433 | 0.191 | 0.96 | 0.855 | 0.703 | 0.666 | 0.361
ABC-1 |  |  |  |  |  | 0.215 | 0.211 | 0.264 | 0.218 | 0.212 | 0.62 | 0.326 | 0.633 | 0.564 | 0.439 | 1.15 | 1.02 | 0.701 | 0.835 | 0.575
BEN | 0.996 | 0.994 | 0.781 | 0.491 | 0.49 | 0.272 | 0.29 | 0.273 | 0.314 | 0.243 | 0.56 | 0.504 | 0.291 | 0.385 | 0.3 | 0.701 | 0.603 | 0.486 | 0.411 | 0.373
CAL-12T | 0.381 | 0.338 | 0.309 | 0.328 | 0.319 | 0.647 | 0.452 | 0.583 | 0.461 | 0.302 | 0.509 | 0.398 |  | 0.482 | 0.364 | 1.16 | 0.96 | 0.452 | 0.897 | 0.54
COR-L23 | 0.642 | 0.602 | 0.463 | 0.575 | 0.241 | 0.461 | 0.438 | 0.499 | 0.407 | 0.324 | 0.926 | 0.776 | 0.291 | 0.287 | 0.24 | 0.511 | 0.475 | 0.389 | 0.299 | 0.174
COR-L 105 | 0.517 | 0.394 | 0.439 | 0.459 | 0.396 | 0.562 | 0.396 | 0.422 | 0.489 | 0.5 | 0.388 | 0.381 | 0.373 | 0.464 | 0.41 | 1.38 | 0.898 | 0.734 | 0.945 | 0.619
Calu-6 |  |  |  |  |  |  |  |  |  |  | 0.995 | 0.898 | 0.467 | 0.859 | 0.218 |  |  |  |  | 
ChaGo-K-1 | 0.913 | 0.874 | 0.438 | 0.246 | 0.204 | 0.481 | 0.522 | 0.477 | 0.481 | 0.412 | 0.896 | 0.557 | 0.466 | 0.447 | 0.27 | 0.767 | 0.648 | 0.442 | 0.274 | 0.252
EBC-1 |  |  |  |  |  |  |  |  |  |  | 0.338 | 0.348 | 0.311 | 0.387 | 0.303 |  |  |  |  | 
EKVX | 0.51 | 0.328 |  | 0.294 | 0.321 | 0.243 | 0.214 | 0.23 | 0.21 | 0.18 | 0.419 | 0.456 |  | 0.487 | 0.401 | 0.772 | 0.745 |  | 0.819 | 0.635
IA-LM |  |  |  |  |  |  |  |  |  |  | 0.394 | 0.325 |  | 0.37 | 0.292 | 1.01 | 0.697 | 0.365 | 1.02 | 0.854
NCI-H522 | 0.815 | 0.704 | 0.667 | 0.758 | 0.723 | 0.754 | 0.603 | 0.677 | 0.763 | 0.692 |  |  |  |  |  | 0.797 | 0.938 | 0.802 | 1.01 | 0.778
NCI-H1299 |  |  |  |  |  |  |  |  |  |  | 0.75 | 0.761 | 0.543 | 0.739 | 0.264 |  |  |  |  | 
NCI-H1563 |  |  |  |  |  | 0.669 | 0.651 | 0.643 | 0.682 | 0.728 | 0.645 | 0.607 | 0.636 | 0.674 | 0.706 |  |  |  |  | 
NCI-H1648 | 0.628 | 0.469 | 0.435 | 0.421 | 0.419 |  |  |  |  |  |  |  |  |  |  | 0.554 | 0.494 | 0.479 | 0.262 | 0.48
NCI-H1703 |  |  |  |  |  |  |  |  |  |  | 0.267 |  |  | 0.265 | 0.239 |  |  |  |  | 
NCI-H1792 | 0.472 | 0.351 | 0.187 | 0.176 | 0.182 | 0.361 | 0.289 | 0.259 | 0.504 | 0.508 | 0.288 | 0.267 | 0.343 | 0.184 | 0.158 |  |  |  |  | 
NCI-H2342 | 0.891 | 0.768 | 0.751 | 0.756 | 0.712 | 0.546 | 0.609 | 0.606 | 0.733 | 0.829 |  |  |  |  |  | 0.863 | 0.642 | 0.674 | 0.679 | 0.712
SW 900 | 0.759 | 0.789 |  | 0.899 | 1.15 | 0.748 | 0.452 | 0.63 | 0.672 | 0.618 |  |  |  |  |  | 0.497 | 0.667 |  | 0.67 | 0.503
